Blank lines part the entries; values can stand above or below the molecule they belong to.
Test system: 699152-130-R-J1-PDC complex spheroid growth
Test: Anticancer human tumor 699152-130-R-J1-PDC patient-derived pancreatic carcinoma cell line growth inhibition [AhR]
Details: for IC50: curve of first compound; for viability, T/C: stronger effect = lower value
In short: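 Agents were dosed in half-log steps down from roughly clinical Cmax, or from 10 microM where Cmax was unknown, alone and with AhR antagonists. Read-out: percent test/control growth of tumor spheroids containing HUVEC and MSC stromal cells.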

[1] = second compound 0.1 µM, first compound 0.0316 µM
[2] = second compound 0.1 µM, first compound 0.1 µM
[3] = second compound 0.1 µM, first compound 0.316 µM
[4] = second compound 0.1 µM, first compound 1 µM
[5] = second compound 0.1 µM, first compound 3.16 µM
[6] = second compound 0.1 µM, first compound 10 µM
[7] = second compound 0.316 µM, first compound 0.0316 µM
[8] = second compound 0.316 µM, first compound 0.1 µM
[9] = second compound 0.316 µM, first compound 0.316 µM
[10] = second compound 0.316 µM, first compound 1 µM
[11] = second compound 0.316 µM, first compound 3.16 µM
[12] = second compound 0.316 µM, first compound 10 µM
[13] = second compound 1 µM, first compound 0.0316 µM
[14] = second compound 1 µM, first compound 0.1 µM
[15] = second compound 1 µM, first compound 0.316 µM
[16] = second compound 1 µM, first compound 1 µM
[17] = second compound 1 µM, first compound 3.16 µM
[18] = second compound 1 µM, first compound 10 µM
[19] = second compound 3.16 µM, first compound 0.0316 µM
[20] = second compound 3.16 µM, first compound 0.1 µM
[21] = second compound 3.16 µM, first compound 0.316 µM
[22] = second compound 3.16 µM, first compound 1 µM
[23] = second compound 3.16 µM, first compound 3.16 µM
[24] = second compound 3.16 µM, first compound 10 µM
[25] = second compound 10 µM, first compound 0.0316 µM
[26] = second compound 10 µM, first compound 0.1 µM
[27] = second compound 10 µM, first compound 0.316 µM
[28] = second compound 10 µM, first compound 1 µM
[29] = second compound 10 µM, first compound 3.16 µM
[30] = second compound 10 µM, first compound 10 µM
[31] = second compound 0.1 µM, first compound 0.00949 µM
[32] = second compound 0.1 µM, first compound 0.03 µM
[33] = second compound 0.1 µM, first compound 0.0949 µM
[34] = second compound 0.1 µM, first compound 0.3 µM
[35] = second compound 0.316 µM, first compound 0.00949 µM
[36] = second compound 0.316 µM, first compound 0.03 µM
[37] = second compound 0.316 µM, first compound 0.0949 µM
[38] = second compound 0.316 µM, first compound 0.3 µM
[39] = second compound 1 µM, first compound 0.00949 µM
[40] = second compound 1 µM, first compound 0.03 µM
[41] = second compound 1 µM, first compound 0.0949 µM
[42] = second compound 1 µM, first compound 0.3 µM
[43] = second compound 3.16 µM, first compound 0.00949 µM
[44] = second compound 3.16 µM, first compound 0.03 µM
[45] = second compound 3.16 µM, first compound 0.0949 µM
[46] = second compound 3.16 µM, first compound 0.3 µM
[47] = second compound 10 µM, first compound 0.00949 µM
[48] = second compound 10 µM, first compound 0.03 µM
[49] = second compound 10 µM, first compound 0.0949 µM
[50] = second compound 10 µM, first compound 0.3 µM
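Also: compound exposure lasted 7 days after spheroids had grown for 3 days.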

SMILES: CC1(C)CCC(CN2CCN(c3ccc(C(=O)NS(=O)(=O)c4ccc(NCC5CCOCC5)c([N+](=O)[O-])c4)c(Oc4cnc5[nH]ccc5c4)c3)CC2)=C(c2ccc(Cl)cc2)C1 + Cc1ccccc1N=Nc1ccc(NC(=O)c2ccnn2C)c(C)c1
IC50 (second compound 0.1 µM): > 10 µM
IC50 (second compound 0.316 µM): > 10 µM
IC50 (second compound 1 µM): > 10 µM
IC50 (second compound 3.16 µM): > 10 µM
IC50 (second compound 10 µM): > 10 µM
viability, T/C [1]: 93.7%
viability, T/C [2]: 102%
viability, T/C [3]: 103%
viability, T/C [4]: 95.9%
viability, T/C [5]: 101%
viability, T/C [6]: 68%
viability, T/C [7]: 93.2%
viability, T/C [8]: 103%
viability, T/C [9]: 95.9%
viability, T/C [10]: 95.5%
viability, T/C [11]: 93.5%
viability, T/C [12]: 74%
viability, T/C [13]: 103%
viability, T/C [14]: 101%
viability, T/C [15]: 104%
viability, T/C [16]: 102%
viability, T/C [17]: 101%
viability, T/C [18]: 65.8%
viability, T/C [19]: 107%
viability, T/C [20]: 95.2%
viability, T/C [21]: 118%
viability, T/C [22]: 102%
viability, T/C [23]: 86.5%
viability, T/C [24]: 71.8%
viability, T/C [25]: 114%
viability, T/C [26]: 124%
viability, T/C [27]: 118%
viability, T/C [28]: 113%
viability, T/C [29]: 108%
viability, T/C [30]: 68.2%

SMILES: CCN(c1cc(-c2ccc(CN3CCOCC3)cc2)cc(C(=O)NCc2c(C)cc(C)[nH]c2=O)c1C)C1CCOCC1 + Cc1ccccc1N=Nc1ccc(NC(=O)c2ccnn2C)c(C)c1
IC50 (second compound 0.1 µM): > 3 µM
IC50 (second compound 0.316 µM): > 3 µM
IC50 (second compound 1 µM): > 3 µM
IC50 (second compound 3.16 µM): > 3 µM
IC50 (second compound 10 µM): > 3 µM
viability, T/C [31]: 111%
viability, T/C [32]: 113%
viability, T/C [33]: 108%
viability, T/C [34]: 104%
viability, T/C (second compound 0.1 µM, first compound 0.949 µM): 109%
viability, T/C (second compound 0.1 µM, first compound 3 µM): 104%
viability, T/C [35]: 91.2%
viability, T/C [36]: 95.6%
viability, T/C [37]: 102%
viability, T/C [38]: 105%
viability, T/C (second compound 0.316 µM, first compound 0.949 µM): 109%
viability, T/C (second compound 0.316 µM, first compound 3 µM): 114%
viability, T/C [39]: 118%
viability, T/C [40]: 105%
viability, T/C [41]: 109%
viability, T/C [42]: 109%
viability, T/C (second compound 1 µM, first compound 0.949 µM): 90.8%
viability, T/C (second compound 1 µM, first compound 3 µM): 118%
viability, T/C [43]: 97.1%
viability, T/C [44]: 104%
viability, T/C [45]: 108%
viability, T/C [46]: 98.7%
viability, T/C (second compound 3.16 µM, first compound 0.949 µM): 99.7%
viability, T/C (second compound 3.16 µM, first compound 3 µM): 101%
viability, T/C [47]: 113%
viability, T/C [48]: 113%
viability, T/C [49]: 118%
viability, T/C [50]: 124%
viability, T/C (second compound 10 µM, first compound 0.949 µM): 127%
viability, T/C (second compound 10 µM, first compound 3 µM): 113%

Second part, led by results:

IC50 (second compound 0.1 µM): > 0.1 µM
IC50 (second compound 0.316 µM): > 0.1 µM
IC50 (second compound 1 µM): > 0.1 µM
IC50 (second compound 3.16 µM): > 0.1 µM
IC50 (second compound 10 µM): > 0.1 µM
SMILES: Cn1ncnc1C1c2n[nH]c(=O)c3cc(F)cc(c23)NC1c1ccc(F)cc1 (stereo not given) + Cc1ccccc1N=Nc1ccc(NC(=O)c2ccnn2C)c(C)c1
viability, T/C (second compound 0.1 µM, first compound 0.000316 µM): 83.7%
viability, T/C (second compound 0.1 µM, first compound 0.001 µM): 101%
viability, T/C (second compound 0.1 µM, first compound 0.00316 µM): 101%
viability, T/C (second compound 0.1 µM, first compound 0.01 µM): 87%
viability, T/C [1]: 99.2%
viability, T/C [2]: 100%
viability, T/C (second compound 0.316 µM, first compound 0.000316 µM): 102%
viability, T/C (second compound 0.316 µM, first compound 0.001 µM): 96.5%
viability, T/C (second compound 0.316 µM, first compound 0.00316 µM): 97.8%
viability, T/C (second compound 0.316 µM, first compound 0.01 µM): 88.8%
viability, T/C [7]: 92.4%
viability, T/C [8]: 80.1%
viability, T/C (second compound 1 µM, first compound 0.000316 µM): 107%
viability, T/C (second compound 1 µM, first compound 0.001 µM): 87%
viability, T/C (second compound 1 µM, first compound 0.00316 µM): 94%
viability, T/C (second compound 1 µM, first compound 0.01 µM): 98.4%
viability, T/C [13]: 95.5%
viability, T/C [14]: 83.2%
viability, T/C (second compound 3.16 µM, first compound 0.000316 µM): 97.5%
viability, T/C (second compound 3.16 µM, first compound 0.001 µM): 117%
viability, T/C (second compound 3.16 µM, first compound 0.00316 µM): 112%
viability, T/C (second compound 3.16 µM, first compound 0.01 µM): 100%
viability, T/C [19]: 90.5%
viability, T/C [20]: 99%
viability, T/C (second compound 10 µM, first compound 0.000316 µM): 113%
viability, T/C (second compound 10 µM, first compound 0.001 µM): 112%
viability, T/C (second compound 10 µM, first compound 0.00316 µM): 118%
viability, T/C (second compound 10 µM, first compound 0.01 µM): 122%
viability, T/C [25]: 108%
viability, T/C [26]: 105%

IC50 (second compound 0.1 µM): 0.807 µM
IC50 (second compound 0.316 µM): 0.724 µM
IC50 (second compound 1 µM): 0.739 µM
IC50 (second compound 3.16 µM): 0.694 µM
IC50 (second compound 10 µM): 0.542 µM
SMILES: NS(=O)(=O)OCC1CC(n2ccc3c(NC4CCc5ccccc54)ncnc32)CC1O (stereo not given) + Cc1ccccc1N=Nc1ccc(NC(=O)c2ccnn2C)c(C)c1
viability, T/C [1]: 98.3%
viability, T/C [2]: 107%
viability, T/C [3]: 107%
viability, T/C [4]: 37.5%
viability, T/C [5]: 21.6%
viability, T/C [6]: 25.2%
viability, T/C [7]: 102%
viability, T/C [8]: 103%
viability, T/C [9]: 104%
viability, T/C [10]: 29.4%
viability, T/C [11]: 18.5%
viability, T/C [12]: 20.1%
viability, T/C [13]: 105%
viability, T/C [14]: 116%
viability, T/C [15]: 105%
viability, T/C [16]: 30.3%
viability, T/C [17]: 20.2%
viability, T/C [18]: 27.1%
viability, T/C [19]: 115%
viability, T/C [20]: 115%
viability, T/C [21]: 96.7%
viability, T/C [22]: 28.4%
viability, T/C [23]: 20.8%
viability, T/C [24]: 24.9%
viability, T/C [25]: 122%
viability, T/C [26]: 125%
viability, T/C [27]: 67.3%
viability, T/C [28]: 32.9%
viability, T/C [29]: 27.2%
viability, T/C [30]: 30.8%

IC50 (second compound 0.1 µM): > 0.3 µM
IC50 (second compound 0.316 µM): > 0.3 µM
IC50 (second compound 1 µM): > 0.3 µM
IC50 (second compound 3.16 µM): > 0.3 µM
IC50 (second compound 10 µM): > 0.3 µM
SMILES: Nc1ncn(C2CC(O)C(CO)S2)c(=O)n1 (stereo not given) + Cc1ccccc1N=Nc1ccc(NC(=O)c2ccnn2C)c(C)c1
viability, T/C (second compound 0.1 µM, first compound 0.000949 µM): 99.6%
viability, T/C (second compound 0.1 µM, first compound 0.003 µM): 98.9%
viability, T/C [31]: 99%
viability, T/C [32]: 95.5%
viability, T/C [33]: 102%
viability, T/C [34]: 102%
viability, T/C (second compound 0.316 µM, first compound 0.000949 µM): 101%
viability, T/C (second compound 0.316 µM, first compound 0.003 µM): 105%
viability, T/C [35]: 95.3%
viability, T/C [36]: 105%
viability, T/C [37]: 103%
viability, T/C [38]: 90.4%
viability, T/C (second compound 1 µM, first compound 0.000949 µM): 101%
viability, T/C (second compound 1 µM, first compound 0.003 µM): 101%
viability, T/C [39]: 103%
viability, T/C [40]: 107%
viability, T/C [41]: 103%
viability, T/C [42]: 89.8%
viability, T/C (second compound 3.16 µM, first compound 0.000949 µM): 90.2%
viability, T/C (second compound 3.16 µM, first compound 0.003 µM): 99%
viability, T/C [43]: 104%
viability, T/C [44]: 101%
viability, T/C [45]: 100%
viability, T/C [46]: 95.3%
viability, T/C (second compound 10 µM, first compound 0.000949 µM): 114%
viability, T/C (second compound 10 µM, first compound 0.003 µM): 116%
viability, T/C [47]: 122%
viability, T/C [48]: 111%
viability, T/C [49]: 114%
viability, T/C [50]: 107%

Reference: PubChem BioAssay AID1919001 (Molecular Pharmacology Branch, DTP, NCI, 2023)
